This assay concerns SU-DHL-4 cell line. Description: SU-DHL-4 cell proliferation assay (Cell Titer-Glo viability). It is filed as cell-based. The conditions noted are these: Homo sapiens; cell viability IC50 activity level, DLBCL cell line SU-DHL-4, 120 hours post-treatment; read-out: SU-DHL-4 Act. How it is done:
SU-DHL-4 Cell Proliferation Assay.
The following is an example of an assay that can be used to determine the anti-proliferative activity of Isoindolinedione Compounds in a DLBCL cell line, for example, the SU-DHL-4 cell line (Deutsche Sammlung von Mikroorganismen and Zellkulturen GmbH [DSMZ]: catalogue number ACC-495) at 120 hours post-treatment. The seeding density for SU-DHL-4 can be optimized to ensure assay linearity in 1536-well plates.
Increasing concentrations of test compounds (0.5 nM to 10 μM) were spotted in a 20-point dilution fashion (unevenly spaced data points) via an acoustic dispenser (EDC ATS-100) into an empty 1536-well plate. The DMSO concentration was kept constant for a final assay concentration of 0.1% DMSO. Prior to testing, SU-DHL-4 cells were grown in RPMI-1640 (Roswell Park Memorial Institute—1640) medium with 10% FBS (fetal bovine serum: HyClone) and expanded in culture flasks to provide sufficient amounts of starting material. Cells were then diluted to 500 cells per well in a 5 μL volume, and added directly to the compound-spotted 1536-well plates. Cells were allowed to grow for 120 hours in 5% CO2 at 37° C. At the time when exposure of cells to compound began (to), initial viable cell number was assessed via Cell Titer-Glo® Luminescent Cell Viability Assay at a 1 vol:2 vol ratio according to manufacturer's instructions (Promega Corporation, Madison, Wis.) by quantifying the level of luminescence generated by adenosine-5′-triphosphate (ATP) present in viable cells. After 120 hours, cell viability of the treated cells was assessed via Cell Titer-Gb® and read for luminescence. All growth inhibition curves were processed and evaluated using Activity Base (IDBS, Alameda, Calif.). Cell viability IC50 values were calculated using a four parameter logistic model (sigmoidal dose-response model): y=(A+((B−A)/(1+((C/x)^D)))) wherein: A=YMin B=YMax C=EC50 D=Hill slope IC50=the concentration of the compound when Y=50% of DMSO control Y=cell viability measured as luminescence unit, and x=concentration of compound.
A general note: Cellular ATP, detected with luciferase, serves as a proxy for viable cell number.
Consider `O=C1CCC(N2C(=O)c3cccc(NCc4ccc(CN5C[C@@H]6CC(c7ccc(F)cc7)=C[C@@H]6C5)cc4)c3C2=O)C(=O)N1` (stereo in doubt) [Cpd 59, 2-(2,6-dioxopiperidin-3-yl)-4-(4-(((3aS,6aR)-5-(4-fluorophenyl)-3,3a,6,6a-tetrahydrocyclopenta[c]pyrrol-2(1H)-yl)methyl)benzylamino)isoindoline-1,3-dione], for which the IC50 was < 200 nM.

Take `O=C1CCC(N2C(=O)c3cccc(NCc4ccc(CN5CCN(c6ccc(F)cc6F)CC5)cc4)c3C2=O)C(=O)N1` (stereo not drawn) [Cpd 1, 4-(4-((4-(2,4-difluorophenyl)piperazin-1-yl)methyl)benzylamino)-2-(2,6-dioxopiperidin-3-yl)isoindoline-1,3-dione]: the IC50 lay in the range of 501 to 750 nM.

Take `O=C1CCC(N2C(=O)c3cccc(NCc4ccc(CN5CCN(c6ccc(F)cc6)CC5)cc4)c3C2=O)C(=O)N1` (stereo not drawn) [Cpd 2, 2-(2,6-dioxopiperidin-3-yl)-4-(4-((4-(4-fluorophenyl)piperazin-1-yl)methyl)benzylamino)isoindoline-1,3-dione]: the IC50 was in the range of 501 to 750 nM.

Turning to `O=C1CCC(N2C(=O)c3cccc(NCc4ccc(CN5CCN(c6ccc(Cl)cc6)CC5)cc4)c3C2=O)C(=O)N1` (stereo not drawn) [Cpd 3, 4-(4-((4-(4-chlorophenyl)piperazin-1-yl)metthyl)benzylamino)-2-(2,6-dioxopiperidin-3-yl)isoindoline-1,3-dione], the IC50 was 200 to 500 nM.

Turning to `O=C1CCC(N2C(=O)c3cccc(NCc4ccc(CN5CCN(c6ccc(Cl)cc6Cl)CC5)cc4)c3C2=O)C(=O)N1` (stereo not drawn) [Cpd 4, 4-(4-((4-(2,4-dichlorophenyl)piperazin-1-yl)methyl)benzylamino)-2-(2,6-dioxopiperidin-3-yl)isoindoline-1,3-dione], the IC50 lay within 501 to 750 nM.

Take `CC(C)C1CCN(Cc2ccc(CNc3cccc4c3C(=O)N(C3CCC(=O)NC3=O)C4=O)cc2)CC1` (stereo not drawn) [Cpd 5, 2-(2,6-dioxopiperidin-3-yl)-4-(4-((4-isopropylpiperidin-1-yl)methyl)benzylamino)isoindoline-1,3-dione]: the IC50 is < 200 nM.

As for `O=C1CCC(N2C(=O)c3cccc(NCc4ccc(CN5CC(c6ccccc6)C5)cc4)c3C2=O)C(=O)N1` (stereo not drawn) [Cpd 6, 2-(2,6-dioxopiperidin-3-yl)-4-(4-((3-phenylazetidin-1-yl)methyl)benzylamino)isoindoline-1,3-dione], the IC50 was 501 to 750 nM.

As to `N#Cc1ccc(C2CN(Cc3ccc(CNc4cccc5c4C(=O)N(C4CCC(=O)NC4=O)C5=O)cc3)C2)cc1` (stereo not drawn) [Cpd 7, 4-(1-(4-((2-(2,6-dioxopiperidin-3-yl)-1,3-dioxoisoindolin-4-ylamino)methyl)benzyl)azetidin-3-yl)benzonitrile], the IC50 was < 200 nM.

As for `Cc1cc(C#N)ccc1N1CCN(Cc2ccc(CNc3cccc4c3C(=O)N(C3CCC(=O)NC3=O)C4=O)cc2)CC1` (stereo not drawn) [Cpd 8, 4-(4-(4-((2-(2,6-dioxopiperidin-3-yl)-1,3-dioxoisoindolin-4-ylamino)methyl)benzyl)piperazin-1-yl)-3-methylbenzonitrile], the IC50 lay in the range of 200 to 500 nM.

In the case of `N#Cc1ccc(N2CCN(Cc3ccc(CNc4cccc5c4C(=O)N(C4CCC(=O)NC4=O)C5=O)cc3)CC2)c(Cl)c1` (stereo not drawn) [Cpd 9, 3-chloro-4-(4-(4-((2-(2,6-dioxopiperidin-3-yl)-1,3-dioxoisoindolin-4-ylamino)methyl)benzyl)piperazin-1-yl)benzonitrile], the IC50 was < 200 nM.

In the case of `O=C1CCC(N2C(=O)c3cccc(NCc4ccc(CN5CCN(c6ccc(C(F)(F)F)nc6)CC5)cc4)c3C2=O)C(=O)N1` (stereo not drawn) [Cpd 10, 2-(2,6-dioxopiperidin-3-yl)-4-(4-((4-(6-(trifluoromethyl)pyridin-3-yl)piperazin-1-yl)methyl)benzylamino)isoindoline-1,3-dione], the IC50 was in the range of 200 to 500 nM.

Consider `N#Cc1cc(F)c(N2CCN(Cc3ccc(CNc4cccc5c4C(=O)N(C4CCC(=O)NC4=O)C5=O)cc3)CC2)c(Cl)c1` (stereo not drawn) [Cpd 11, 3-chloro-4-(4-(4-((2-(2,6-dioxopiperidin-3-yl)-1,3-dioxoisoindolin-4-ylamino)methyl)benzyl)piperazin-1-yl)-5-fluorobenzonitrile], for which the IC50 was in the range of 501 to 750 nM.

As for `O=C1CCC(N2C(=O)c3cccc(NCc4ccc(CN5CCN(c6ccccc6Cl)CC5)cc4)c3C2=O)C(=O)N1` (stereo not drawn) [Cpd 12, 4-(4-((4-(2-chlorophenyl)piperazin-1-yl)methyl)benzylamino)-2-(2,6-dioxopiperidin-3-yl)isoindoline-1,3-dione], the IC50 lay in the range of 200 to 500 nM.

On to `O=C1CCC(N2C(=O)c3cccc(NCc4ccc(CN5CC(c6cccc(F)c6)C5)cc4)c3C2=O)C(=O)N1` (stereo not drawn) [Cpd 13, 2-(2,6-dioxopiperidin-3-yl)-4-(4-((3-(3-fluorophenyl)azetidin-1-yl)methyl)benzylamino)isoindoline-1,3-dione], for which the IC50 lay within 501 to 750 nM.

As to `O=C1CCC(N2C(=O)c3cccc(NCc4ccc(CN5CC(c6ccc(F)cc6)C5)cc4)c3C2=O)C(=O)N1` (stereo not drawn) [Cpd 14, 2-(2,6-dioxopiperidin-3-yl)-4-(4-((3-(4-fluorophenyl)azetidin-1-yl)methyl)benzylamino)isoindoline-1,3-dione], the IC50 was in the range of 200 to 500 nM.

Regarding `N#Cc1cccc(C2CN(Cc3ccc(CNc4cccc5c4C(=O)N(C4CCC(=O)NC4=O)C5=O)cc3)C2)c1` (stereo not drawn) [Cpd 15, 3-(1-(4-((2-(2,6-dioxopiperidin-3-yl)-1,3-dioxoisoindolin-4-ylamino)methyl)benzyl)azetidin-3-yl)benzonitrile], the IC50 fell in the range of 751 to 1000 nM.

Regarding `O=C1CCC(N2C(=O)c3cccc(NCc4ccc(CN5CC(c6ccccn6)C5)cc4)c3C2=O)C(=O)N1` (stereo not drawn) [Cpd 16, 2-(2,6-dioxopiperidin-3-yl)-4-(4-((3-(pyridin-2-yl)azetidin-1-yl)methyl)benzylamino)isoindoline-1,3-dione], the IC50 is < 200 nM.

For `NC(=O)c1ccc(N2CCN(Cc3ccc(CNc4cccc5c4C(=O)N(C4CCC(=O)NC4=O)C5=O)cc3)CC2)cn1` (stereo not drawn) [Cpd 17, 5-(4-(4-((2-(2,6-dioxopiperidin-3-yl)-1,3-dioxoisoindolin-4-ylamino)methyl)benzyl)piperazin-1-yl)picolinamide], the IC50 is < 200 nM.

In the case of `O=C1CCC(N2C(=O)c3cccc(NCc4ccc(CN5CCN(c6ccc(Cl)cn6)CC5)cc4)c3C2=O)C(=O)N1` (stereo not drawn) [Cpd 18, 4-(4-((4-(5-chloropyridin-2-yl)piperazin-1-yl)methyl)benzylamino)-2-(2,6-dioxopiperidin-3-yl)isoindoline-1,3-dione], the IC50 fell in the range of 751 to 1000 nM.

Regarding `O=C1CCC(N2C(=O)c3cccc(NCc4ccc(CN5CCC(F)(c6ccccn6)CC5)cc4)c3C2=O)C(=O)N1` (stereo not drawn) [Cpd 19, 2-(2,6-dioxopiperidin-3-yl)-4-(4-((4-fluoro-4-(pyridin-2-yl)piperidin-1-yl)methyl)benzylamino)isoindoline-1,3-dione], the IC50 lay in the range of 501 to 750 nM.

`O=C1CCC(N2C(=O)c3cccc(NCc4ccc(CN5CCC(c6cc(F)cc(F)c6)CC5)cc4)c3C2=O)C(=O)N1` (stereo not drawn) [Cpd 20, 4-(4-((4-(3,5-difluorophenyl)piperidin-1-yl)methyl)benzylamino)-2-(2,6-dioxopiperidin-3-yl)isoindoline-1,3-dione]: the IC50 was in the range of 200 to 500 nM.

Consider `O=C1CCC(N2C(=O)c3cccc(NCc4ccc(CN5CCC6(CC5)CC6)cc4)c3C2=O)C(=O)N1` (stereo not drawn) [Cpd 21, 4-(4-(6-azaspiro[2.5]octan-6-ylmethyl)benzylamino)-2-(2,6-dioxopiperidin-3-yl)isoindoline-1,3-dione], for which the IC50 lay within 501 to 750 nM.

For `CCC1CCN(Cc2ccc(CNc3cccc4c3C(=O)N(C3CCC(=O)NC3=O)C4=O)cc2)CC1` (stereo not drawn) [Cpd 22, 2-(2,6-dioxopiperidin-3-yl)-4-(4-((4-ethylpiperidin-1-yl)methyl)benzylamino)isoindoline-1,3-dione], the IC50 is 200 to 500 nM.

For the molecule `O=C1CCC(N2C(=O)c3cccc(NCc4ccc(CN5CCC6(CCC6)CC5)cc4)c3C2=O)C(=O)N1` (stereo not drawn) [Cpd 23, 4-(4-(7-azaspiro[3.5]nonan-7-ylmethyl)benzylamino)-2-(2,6-dioxopiperidin-3-yl)isoindoline-1,3-dione], the IC50 is < 200 nM.

With `CC(C)OC1CCN(Cc2ccc(CNc3cccc4c3C(=O)N(C3CCC(=O)NC3=O)C4=O)cc2)CC1` (stereo not drawn) [Cpd 24, 2-(2,6-dioxopiperidin-3-yl)-4-(4-((4-isopropoxypiperidin-1-yl)methyl)benzylamino)isoindoline-1,3-dione], the IC50 fell in the range of 200 to 500 nM.

For the molecule `O=C1CCC(N2C(=O)c3cccc(NCc4ccc(CN5CCC(n6cccn6)CC5)cc4)c3C2=O)C(=O)N1` (stereo not drawn) [Cpd 25, 4-(4-((4-(1H-pyrazol-1-yl)piperidin-1-yl)methyl)benzylamino)-2-(2,6-dioxopiperidin-3-yl)isoindoline-1,3-dione], the IC50 fell in the range of 200 to 500 nM.

As for `O=C1CCC(N2C(=O)c3cccc(NCc4ccc(CN5CCC(C(F)(F)F)CC5)cc4)c3C2=O)C(=O)N1` (stereo not drawn) [Cpd 26, 2-(2,6-dioxopiperidin-3-yl)-4-(4-((4-(trifluoromethyl)piperidin-1-yl)methyl)benzylamino)isoindoline-1,3-dione], the IC50 is 200 to 500 nM.

The record behind these values is patent US11358952B2, “Substituted 4-aminoisoindoline-1,3-dione compounds, compositions thereof, and methods of treatment therewith” (Celgene Corporation, priority 2018, dated 2022).
